In the supplement of paper PMC11616607:

How the values were obtained:
Experiment in all cases: drug sensitivity score (DSS) from 5-point dose-response viability curve (DSS (area-under-curve based score)); higher = more sensitive (stronger growth inhibition or killing); extreme values may be limits of the assay
Settings in all cases: exposure time: 72 h; concentration range: 5 concentrations over 10,000-fold range
JHOS2 = system: JHOS2
Method in brief: (§1)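 Ovarian cancer and normal ovarian cell lines were tested in 384-well plates. Drugs were acoustically dispensed (Echo 550) in DMSO or water at five concentrations spanning a 10,000-fold range, then 1,500 cells per well were added and incubated 3 days at 37°C, 5% CO2. Viability was read by CellTiter-Glo luminescence on a PHERAstar FS. Drug sensitivity score was derived per cell line and drug with Breeze software; higher means more sensitive, zero means no response.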

HOSE1C = system: HOSE1C
Method in brief: as §1

Kuramochi = system: Kuramochi
Method in brief: as §1

HOSE2C = system: HOSE2C
Method in brief: as §1

OVCAR8 = system: OVCAR8
Method in brief: as §1

COV362 = system: COV362
Method in brief: as §1

OVCAR4 = system: OVCAR4
Method in brief: as §1

Ovsaho = system: Ovsaho
Method in brief: as §1

OVCAR5 = system: OVCAR5
Method in brief: as §1

COV318 = system: COV318
Method in brief: as §1

CAOV3 = system: CAOV3
Method in brief: as §1

OV90 = system: OV90
Method in brief: as §1

Question: Which results are given for `C[C@@H]1CN(Cc2ccc(F)cc2)[C@@H](C)CN1C(=O)c1cc2c(C(=O)C(=O)N(C)C)cn(C)c2cc1Cl` [Talmapimod]?
Answer: drug sensitivity score (JHOS2): 0; drug sensitivity score (HOSE1C): 0; drug sensitivity score (Kuramochi): 0; drug sensitivity score (HOSE2C): 0; drug sensitivity score (OVCAR8): 0; drug sensitivity score (COV362): 0; drug sensitivity score (OVCAR4): 0; drug sensitivity score (Ovsaho): 0; drug sensitivity score (OVCAR5): 0; drug sensitivity score (COV318): 0; drug sensitivity score (CAOV3): 0; drug sensitivity score (OV90): 0

Question: Which drug sensitivity score (JHOS2) does the source give for `COc1cc(Nc2ncc(F)c(Nc3ccc4c(n3)NC(=O)C(C)(C)O4)n2)cc(OC)c1OC` [Tamatinib] here?
Answer: 0

Question: What about the drug sensitivity score (HOSE1C) of the same molecule?
Answer: 0

Question: And the drug sensitivity score (Kuramochi)?
Answer: 1.5

Question: What about the drug sensitivity score (HOSE2C) of the same molecule?
Answer: 6.2

Question: What about the drug sensitivity score (OVCAR8) of the same molecule?
Answer: 0

Question: And the drug sensitivity score (COV362)?
Answer: 0

Question: And the drug sensitivity score (OVCAR4)?
Answer: 0

Question: And the drug sensitivity score (Ovsaho)?
Answer: 3.8

Question: And the drug sensitivity score (OVCAR5)?
Answer: 4.5

Question: What about the drug sensitivity score (COV318) of the same molecule?
Answer: 0.3

Question: And the drug sensitivity score (CAOV3)?
Answer: 0

Question: And the drug sensitivity score (OV90)?
Answer: 0

Question: What does the source list for `CC/C(=C(\c1ccccc1)c1ccc(OCCN(C)C)cc1)c1ccccc1` [Tamoxifen]?
Answer: drug sensitivity score (JHOS2): 1; drug sensitivity score (HOSE1C): 7.9; drug sensitivity score (Kuramochi): 2.2; drug sensitivity score (HOSE2C): 1.3; drug sensitivity score (OVCAR8): 0.8; drug sensitivity score (COV362): 0.8; drug sensitivity score (OVCAR4): 0.2; drug sensitivity score (Ovsaho): 2.9; drug sensitivity score (OVCAR5): 3.9; drug sensitivity score (COV318): 0.6; drug sensitivity score (CAOV3): 0.6; drug sensitivity score (OV90): 3.7

Question: `COc1cc2c(N3CCN(C(=O)Nc4ccc(OC(C)C)cc4)CC3)ncnc2cc1OCCCN1CCCCC1` [Tandutinib] was tested. Which drug sensitivity score (JHOS2) did it give?
Answer: 0

Question: And the drug sensitivity score (HOSE1C)?
Answer: 0

Question: What about the drug sensitivity score (Kuramochi) of the same molecule?
Answer: 0

Question: And the drug sensitivity score (HOSE2C)?
Answer: 0

Question: And the drug sensitivity score (OVCAR8)?
Answer: 0

Question: What about the drug sensitivity score (COV362) of the same molecule?
Answer: 0

Question: And the drug sensitivity score (OVCAR4)?
Answer: 0

Question: And the drug sensitivity score (Ovsaho)?
Answer: 0

Question: What about the drug sensitivity score (OVCAR5) of the same molecule?
Answer: 0

Question: And the drug sensitivity score (COV318)?
Answer: 0

Question: What about the drug sensitivity score (CAOV3) of the same molecule?
Answer: 0

Question: What about the drug sensitivity score (OV90) of the same molecule?
Answer: 0

Question: With `O[C@H]1CC[C@H](Nc2ncc3nc(Nc4c(F)cc(F)cc4F)n([C@H]4CCOC4)c3n2)CC1` [Tanzisertib] as the molecule, how does the drug sensitivity score (JHOS2) read?
Answer: 0

Question: What about the drug sensitivity score (HOSE1C) of the same molecule?
Answer: 0

Question: What about the drug sensitivity score (Kuramochi) of the same molecule?
Answer: 0.8

Question: What about the drug sensitivity score (HOSE2C) of the same molecule?
Answer: 0

Question: And the drug sensitivity score (OVCAR8)?
Answer: 0

Question: What about the drug sensitivity score (COV362) of the same molecule?
Answer: 0

Question: And the drug sensitivity score (OVCAR4)?
Answer: 0

Question: What about the drug sensitivity score (Ovsaho) of the same molecule?
Answer: 0.4

Question: What about the drug sensitivity score (OVCAR5) of the same molecule?
Answer: 1.9

Question: And the drug sensitivity score (COV318)?
Answer: 0

Question: What about the drug sensitivity score (CAOV3) of the same molecule?
Answer: 0

Question: What about the drug sensitivity score (OV90) of the same molecule?
Answer: 0

Question: `C[C@@H](C(=O)O)c1ccc(-c2ccccc2)c(F)c1` [Tarenflurbil] was tested. Which drug sensitivity score (JHOS2) did it give?
Answer: 0.7

Question: What about the drug sensitivity score (HOSE1C) of the same molecule?
Answer: 0

Question: And the drug sensitivity score (Kuramochi)?
Answer: 0

Question: And the drug sensitivity score (HOSE2C)?
Answer: 0

Question: And the drug sensitivity score (OVCAR8)?
Answer: 0

Question: And the drug sensitivity score (COV362)?
Answer: 0

Question: And the drug sensitivity score (OVCAR4)?
Answer: 0

Question: And the drug sensitivity score (Ovsaho)?
Answer: 0

Question: What about the drug sensitivity score (OVCAR5) of the same molecule?
Answer: 0.3

Question: What about the drug sensitivity score (COV318) of the same molecule?
Answer: 0.3

Question: And the drug sensitivity score (CAOV3)?
Answer: 0

Question: And the drug sensitivity score (OV90)?
Answer: 1.3

Question: Which drug sensitivity score (JHOS2) does the source give for `Cc1nc(-c2cn3c(n2)-c2ccc(-c4cnn(C(C)(C)C(N)=O)c4)cc2OCC3)n(C(C)C)n1` [Taselisib] here?
Answer: 3.3

Question: And the drug sensitivity score (HOSE1C)?
Answer: 4.5

Question: What about the drug sensitivity score (Kuramochi) of the same molecule?
Answer: 4.1

Question: What about the drug sensitivity score (HOSE2C) of the same molecule?
Answer: 7.8

Question: And the drug sensitivity score (OVCAR8)?
Answer: 2.1

Question: And the drug sensitivity score (COV362)?
Answer: 1.9

Question: And the drug sensitivity score (OVCAR4)?
Answer: 2.1

Question: And the drug sensitivity score (Ovsaho)?
Answer: 3.1

Question: What about the drug sensitivity score (OVCAR5) of the same molecule?
Answer: 7.9

Question: What about the drug sensitivity score (COV318) of the same molecule?
Answer: 2.5

Question: And the drug sensitivity score (CAOV3)?
Answer: 7.5

Question: And the drug sensitivity score (OV90)?
Answer: 0.3

Question: `COc1cccc2c1c(O)c(C(=O)N(C)c1ccc(C(F)(F)F)cc1)c(=O)n2C` [Tasquinimod] was tested. Which drug sensitivity score (JHOS2) did it give?
Answer: 0.6

Question: What about the drug sensitivity score (HOSE1C) of the same molecule?
Answer: 0

Question: What about the drug sensitivity score (Kuramochi) of the same molecule?
Answer: 0.2

Question: What about the drug sensitivity score (HOSE2C) of the same molecule?
Answer: 0

Question: And the drug sensitivity score (OVCAR8)?
Answer: 0

Question: What about the drug sensitivity score (COV362) of the same molecule?
Answer: 0

Question: What about the drug sensitivity score (OVCAR4) of the same molecule?
Answer: 1.9

Question: And the drug sensitivity score (Ovsaho)?
Answer: 2

Question: What about the drug sensitivity score (OVCAR5) of the same molecule?
Answer: 0

Question: And the drug sensitivity score (COV318)?
Answer: 0

Question: What about the drug sensitivity score (CAOV3) of the same molecule?
Answer: 0

Question: What about the drug sensitivity score (OV90) of the same molecule?
Answer: 0

Question: With `CCN(c1cc(-c2ccc(CN3CCOCC3)cc2)cc(C(=O)NCc2c(C)cc(C)[nH]c2=O)c1C)C1CCOCC1` [Tazemetostat] as the molecule, how does the drug sensitivity score (JHOS2) read?
Answer: 2.1

Question: And the drug sensitivity score (HOSE1C)?
Answer: 0

Question: And the drug sensitivity score (Kuramochi)?
Answer: 0

Question: What about the drug sensitivity score (HOSE2C) of the same molecule?
Answer: 0

Question: What about the drug sensitivity score (OVCAR8) of the same molecule?
Answer: 0

Question: What about the drug sensitivity score (COV362) of the same molecule?
Answer: 2.3

Question: And the drug sensitivity score (OVCAR4)?
Answer: 0.1

Question: And the drug sensitivity score (Ovsaho)?
Answer: 0

Question: And the drug sensitivity score (OVCAR5)?
Answer: 0

Question: And the drug sensitivity score (COV318)?
Answer: 0

Question: What about the drug sensitivity score (CAOV3) of the same molecule?
Answer: 0

Question: What about the drug sensitivity score (OV90) of the same molecule?
Answer: 0

Question: For `CNC(=O)c1cc(COc2nnc(Nc3ccc(Cl)cc3)c3ccoc23)ccn1` [Telatinib], which drug sensitivity score (JHOS2) is on record?
Answer: 0

Question: And the drug sensitivity score (HOSE1C)?
Answer: 0

Question: What about the drug sensitivity score (Kuramochi) of the same molecule?
Answer: 0.1

Question: What about the drug sensitivity score (HOSE2C) of the same molecule?
Answer: 0

Question: And the drug sensitivity score (OVCAR8)?
Answer: 0

Question: And the drug sensitivity score (COV362)?
Answer: 0

Question: What about the drug sensitivity score (OVCAR4) of the same molecule?
Answer: 0

Question: And the drug sensitivity score (Ovsaho)?
Answer: 0

Question: And the drug sensitivity score (OVCAR5)?
Answer: 0

Question: And the drug sensitivity score (COV318)?
Answer: 0.2

Question: What about the drug sensitivity score (CAOV3) of the same molecule?
Answer: 0

Question: And the drug sensitivity score (OV90)?
Answer: 0

Question: Which drug sensitivity score (JHOS2) does the source give for `Cn1nnc2c(C(N)=O)ncn2c1=O` [Temozolomide] here?
Answer: 0

Question: What about the drug sensitivity score (HOSE1C) of the same molecule?
Answer: 0

Question: And the drug sensitivity score (Kuramochi)?
Answer: 0

Question: What about the drug sensitivity score (HOSE2C) of the same molecule?
Answer: 0.5

Question: What about the drug sensitivity score (OVCAR8) of the same molecule?
Answer: 0

Question: And the drug sensitivity score (COV362)?
Answer: 0

Question: And the drug sensitivity score (OVCAR4)?
Answer: 0

Question: And the drug sensitivity score (Ovsaho)?
Answer: 0

Question: And the drug sensitivity score (OVCAR5)?
Answer: 0

Question: What about the drug sensitivity score (COV318) of the same molecule?
Answer: 0

Question: And the drug sensitivity score (CAOV3)?
Answer: 0

Question: What about the drug sensitivity score (OV90) of the same molecule?
Answer: 0

Question: What does the source list for `CO[C@H]1C[C@@H]2CC[C@@H](C)[C@@](O)(O2)C(=O)C(=O)N2CCCC[C@H]2C(=O)O[C@H]([C@H](C)C[C@@H]2CC[C@@H](OC(=O)C(C)(CO)CO)[C@H](OC)C2)CC(=O)[C@H](C)/C=C(\C)[C@@H](O)[C@@H](OC)C(=O)[C@H](C)C[C@H](C)/C=C/C=C/C=C/1C` [Temsirolimus]?
Answer: drug sensitivity score (JHOS2): 2.8; drug sensitivity score (HOSE1C): 3.9; drug sensitivity score (Kuramochi): 3.2; drug sensitivity score (HOSE2C): 3.2; drug sensitivity score (OVCAR8): 7.6; drug sensitivity score (COV362): 0; drug sensitivity score (OVCAR4): 3.1; drug sensitivity score (Ovsaho): 3; drug sensitivity score (OVCAR5): 8; drug sensitivity score (COV318): 0; drug sensitivity score (CAOV3): 6.6; drug sensitivity score (OV90): 11.2

Question: Which results are given for `COc1cc([C@@H]2c3cc4c(cc3[C@@H](O[C@@H]3O[C@@H]5CO[C@@H](c6cccs6)O[C@H]5[C@H](O)[C@H]3O)[C@H]3COC(=O)[C@H]23)OCO4)cc(OC)c1O` [Teniposide]?
Answer: drug sensitivity score (JHOS2): 0; drug sensitivity score (HOSE1C): 0; drug sensitivity score (Kuramochi): 0; drug sensitivity score (HOSE2C): 0; drug sensitivity score (OVCAR8): 0; drug sensitivity score (COV362): 0; drug sensitivity score (OVCAR4): 0; drug sensitivity score (Ovsaho): 0; drug sensitivity score (OVCAR5): 0; drug sensitivity score (COV318): 0; drug sensitivity score (CAOV3): 0; drug sensitivity score (OV90): 0

Question: What does the source list for `CN1CCC(COc2cnc(-c3cccc(Cn4nc(-c5cccc(C#N)c5)ccc4=O)c3)nc2)CC1` [Tepotinib]?
Answer: drug sensitivity score (JHOS2): 0.5; drug sensitivity score (HOSE1C): 0; drug sensitivity score (Kuramochi): 0; drug sensitivity score (HOSE2C): 0; drug sensitivity score (OVCAR8): 0; drug sensitivity score (COV362): 0; drug sensitivity score (OVCAR4): 0; drug sensitivity score (Ovsaho): 0.8; drug sensitivity score (OVCAR5): 0; drug sensitivity score (COV318): 0; drug sensitivity score (CAOV3): 0; drug sensitivity score (OV90): 0
